What was measured:
Assay type in all cases: in vivo
Alternaria solani = experiment: Alternaria solani/Tomato/Preventive (action against Alternaria on tomato); conditions: 96 h, preventive spray, tomato plants cv. Roter Gnom, assessed 4 days after inoculation, read-out: inhibit fungal infestation
Protocol: Alternaria solani/Tomato/Preventive (Action Against Alternaria on Tomato) 4 weeks old tomato plants cv. Roter Gnom are treated with the formulated test compound in a spray chamber. Two days after application tomato plants are inoculated by spraying a spore suspension on the test plants. After an incubation period of 4 days at 22° C./18° C. and 95% r. h. in a greenhouse the disease incidence is assessed.

[1] = tested on: Pyrenophora teres (Helminthosporium teres); experiment: Pyrenophora teres (Helminthosporium teres)/Barley/Preventive (action against net blotch on barley); conditions: 96 h, preventive spray, barley plants cv. Regina, assessed 4 days after inoculation, read-out: inhibit fungal infestation
Protocol: Pyrenophora teres (Helminthosporium teres)/Barley/Preventive (Action Against Net Blotch on Barley) 1-week-old barley plants cv. Regina are treated with the formulated test compound in a spray chamber. Two days after application barley plants are inoculated by spraying a spore suspension (2.6×10^4 conidia/ml) on the test plants. After an incubation period of 4 days at 20° C. and 95% r. h. the disease incidence is assessed.

Botrytis cinerea = experiment: Botrytis cinerea/Tomato/Preventive (action against Botrytis on tomato); conditions: 72 h, preventive spray, tomato plants cv. Roter Gnom, assessed 3 days after inoculation, read-out: inhibit fungal infestation
Protocol: Botrytis cinerea/Tomato/Preventive (Action Against Botrytis on Tomato) 4 weeks old tomato plants cv. Roter Gnom are treated with the formulated test compound in a spray chamber. Two days after application tomato plants are inoculated by spraying a spore suspension on the test plants. After an incubation period of 3 days at 20° C. and 95% r. h. in a greenhouse the disease incidence is assessed.

[2] = tested on: Magnaporthe grisea (Pyricularia oryzae); experiment: whole plant or invertebrate; conditions: 144 h, read-out: inhibit fungal infestation
Septoria tritici = experiment: Septoria tritici/Wheat/Preventive (action against Septoria leaf spot on wheat); conditions: Zymoseptoria tritici, preventive spray, wheat plants cv. Riband, assessed 16-18 days after inoculation, read-out: inhibit fungal infestation
Protocol: Septoria tritici/Wheat/Preventive (Action Against Septoria Leaf Spot on Wheat) 2 weeks old wheat plants cv. Riband are treated with the formulated test compound in a spray chamber. One day after application wheat plants are inoculated by spraying a spore suspension (10^6 conidia/ml) on the test plants. After an incubation period of 1 day at 22° C./21° C. and 95% r. h. plants are kept at 22° C./21° C. and 70% r.h. in a greenhouse. The disease incidence is assessed 16-18 days after inoculation.

Uncinula necator = experiment: Uncinula necator/Grape/Preventive (action against powdery mildew on grape); conditions: Erysiphe necator, 168 h, preventive spray, grape seedlings cv. Gutedel, assessed 7 days after inoculation, read-out: inhibit fungal infestation
Protocol: Uncinula necator/Grape/Preventive (Action Against Powdery Mildew on Grape) 5 weeks old grape seedlings cv. Gutedel are treated with the formulated test compound in a spray chamber. One day after application grape plants are inoculated by shaking plants infected with grape powdery mildew above the test plants. After an incubation period of 7 days at 24° C./22° C. and 70% r. h. under a light regime of 14/10 h (light/dark) the disease incidence is assessed.

Puccinia recondita = experiment: Puccinia recondita/Wheat/Preventive (action against brown rust on wheat); conditions: 264 h, preventive spray, wheat plants cv. Arina, assessed 11 days after inoculation, read-out: inhibit fungal infestation
Protocol: Puccinia recondita/Wheat/Preventive (Action Against Brown Rust on Wheat) 1 week old wheat plants cv. Arina are treated with the formulated test compound in a spray chamber. One day after application wheat plants are inoculated by spraying a spore suspension ([…] uredospores/ml) on the test plants. After an incubation period of 1 day at 20° C. and 95% r. h. plants are kept for 10 days 20° C./18° C. (day/night) and 60% r.h. in a greenhouse. The disease incidence is assessed 11 days after inoculation.

Measured: inhibition at 200 ppm

Fc1cc(F)c(-c2c(Cl)nc(Cl)n2-c2ccc(Cl)nc2)c(F)c1 [I.j.209, 2-Chloro-5-[2,4-dichloro-5-(2,4,6-trifluoro-phenyl)-imidazol-1-yl]-pyridine]
not listed: Uncinula necator | Puccinia recondita
≥ 80%: all other assays above

Cc1nc(Cl)c(-c2c(F)cc(F)cc2F)n1-c1ccc(Cl)nc1 [I.j.210, 2-Chloro-5-[4-chloro-2-methyl-5-(2,4,6-trifluoro-phenyl)-imidazol-1-yl]-pyridine]
≥ 80%: all assays above

Cc1ccc(-n2c(C)nc(Cl)c2-c2c(F)cc(F)cc2F)cn1 [I.j.225, 5-[4-Chloro-2-methyl-5-(2,4,6-trifluoro-phenyl)-imidazol-1-yl]-2-methyl-pyridine]
≥ 80%: Alternaria solani | Uncinula necator | [2] | Septoria tritici

Fc1cc(F)c(-c2c(Cl)nc(Cl)n2-c2cnc3ccccc3c2)c(F)c1 [I.j.269, 3-[2,4-dichloro-5-(2,4,6-trifluoro-phenyl)-imidazol-1-yl]-quinoline]
≥ 80%: Alternaria solani | [1] | Uncinula necator | Septoria tritici

Cc1nc(Cl)c(-c2c(F)cc(F)cc2F)n1-c1cnc2ccccc2c1 [I.j.270, 3-[4-chloro-2-methyl-5-(2,4,6-trifluoro-phenyl)-imidazol-1-yl]-quinoline]
≥ 80%: all assays above

COc1cc(F)c(-c2c(Cl)nc(C)n2-c2ccc(Cl)nc2)c(F)c1 [I.m.210, 2-Chloro-5-[4-chloro-5-(2,6-difluoro-4-methoxy-phenyl)-2-methyl-imidazol-1-yl]-pyridine]
≥ 80%: all assays above

COc1cc(F)c(-c2c(Cl)nc(C)n2-c2ccc(OC)nc2)c(F)c1 [I.m.220, 5-[4-Chloro-5-(2,6-difluoro-4-methoxy-phenyl)-2-methyl-imidazol-1-yl]-2-methoxy-pyridine]
≥ 80%: all assays above

COc1cc(F)c(-c2c(Cl)nc(C)n2-c2ccc(C)nc2)c(F)c1 [I.m.225, 5-[4-Chloro-5-(2,6-difluoro-4-methoxy-phenyl)-2-methyl-imidazol-1-yl]-2-methyl-pyridine]
≥ 80%: all assays above

Source: patent US20110311649A1, “NOVEL IMIDAZOLE DERIVATIVES” (SYNGENTA CROP PROTECTION, INC., priority 2007, published 2011)
